Measurements reported in patent publication US20230382949A1 (HEPTARES THERAPEUTICS LIMITED, priority 2020, published 2023).
Starred links: 1 amine or outer side, 2 acyl side, 3 side chain; linkers in the order of their positions; H or OH if unused. Non-standard residues stand in square brackets, D forms with d. Residues, ends and D or L forms follow the SMILES beside them. *: point of attachment. Ala(piperidin-4-yl) = O=C([C@H](CC1CCN([*:3])CC1)N[*:1])[*:2]; Malonyl(2,2-Me2,histaminyl) = CC(C)(C(=O)NCCc1cnc[nH]1)C(=O)*; Bip = N[C@@H](Cc1ccc(-c2ccccc2)cc1)C(=O)O; dBip = N[C@H](Cc1ccc(-c2ccccc2)cc1)C(=O)O; Oic = O=C(O)[C@@H]1C[C@@H]2CCCC[C@@H]2N1; Phe(3-Cl) = N[C@@H](Cc1cccc(Cl)c1)C(=O)O; Phe(4-Br) = N[C@@H](Cc1ccc(Br)cc1)C(=O)O; Phe(4-Cl) = N[C@@H](Cc1ccc(Cl)cc1)C(=O)O; 2Nal = N[C@@H](Cc1ccc2ccccc2c1)C(=O)O; Ser(ΨH,HPro) = O=C(O)[C@@H]1COCN1; hArg = N=C(N)NCCCC[C@H](N)C(=O)O; tBuAla = CC(C)(C)C[C@H](N)C(=O)O; 3Pal = N[C@@H](Cc1cccnc1)C(=O)O; Cba = N[C@@H](CC1CCC1)C(=O)O; Pip = O=C(O)[C@@H]1CCCCN1; Aib = CC(C)(N)C(=O)O

Key:
human Apelin receptor [1] = biological target: T1, human Apelin receptor (Homo sapiens, UniProt P35414); assay: β-arrestin accumulation assay, functional agonism of human Apelin receptors; assay type: cell-based
T1 construct: host or cells: CHO-K1 cells
Protocol: β-arrestin assay. […] After 16 h incubation at 37° C. media was removed and cells were incubated at 37° C. for 90 min in serum free media containing increasing concentrations of test agonist. The assay reaction was stopped by adding detection reagent (DiscoveRx) and incubation for 60 min in the dark. Levels of receptor activation were then measured on a PheraStar fluorescence plate reader (BMG LabTech) and EC50 values were determined using Graphpad Prism.
T1 sequence (P32121 whole entry partner, one chain of several): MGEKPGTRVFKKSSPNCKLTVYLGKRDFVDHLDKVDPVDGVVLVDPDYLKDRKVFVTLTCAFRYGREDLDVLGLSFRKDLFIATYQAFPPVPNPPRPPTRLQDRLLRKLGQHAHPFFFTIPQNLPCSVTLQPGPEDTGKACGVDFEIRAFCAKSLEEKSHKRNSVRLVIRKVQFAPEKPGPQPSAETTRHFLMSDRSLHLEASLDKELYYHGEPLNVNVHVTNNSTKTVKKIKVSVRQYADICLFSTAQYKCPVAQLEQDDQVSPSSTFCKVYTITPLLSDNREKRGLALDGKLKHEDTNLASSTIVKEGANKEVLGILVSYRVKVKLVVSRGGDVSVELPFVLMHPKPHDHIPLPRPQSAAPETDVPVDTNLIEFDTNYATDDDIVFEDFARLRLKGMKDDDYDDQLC

human Apelin receptor [2] = biological target: T2, human Apelin receptor (Homo sapiens, UniProt P35414); assay: cAMP accumulation assay (HTRF), functional agonism of human Apelin receptors; assay type: cell-based; details: CHO cells stably expressing the human Apelin receptor, 3 uM forskolin; for Emax: CHO, Human Apelin agonist cAMP assay; for EC50: pEC50, Human Apelin agonist cAMP assay
T2 sequence (P35414 1-380): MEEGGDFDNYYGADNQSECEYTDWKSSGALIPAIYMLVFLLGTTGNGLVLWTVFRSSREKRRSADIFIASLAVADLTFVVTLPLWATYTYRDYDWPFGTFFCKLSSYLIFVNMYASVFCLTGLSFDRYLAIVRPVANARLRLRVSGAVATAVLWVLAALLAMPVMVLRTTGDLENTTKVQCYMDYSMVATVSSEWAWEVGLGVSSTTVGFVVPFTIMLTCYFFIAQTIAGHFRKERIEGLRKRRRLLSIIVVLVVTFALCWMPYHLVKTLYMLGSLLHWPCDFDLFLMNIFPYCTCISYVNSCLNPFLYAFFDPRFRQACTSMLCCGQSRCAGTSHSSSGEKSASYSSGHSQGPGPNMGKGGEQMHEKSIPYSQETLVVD
Excerpt: cAMP functional assay. cAMP production was quantified using the Homogeneous Time-Resolved Fluorescence (HTRF) cAMP dynamic-2 assay (Cisbio, France).

With CC(C)C[C@H](NC(=O)[C@@H](CCCNC(=N)N)NC(=O)[C@@H]1COCN1C(=O)[C@H](CCCCNC(=N)N)NC(=O)[C@H](CCC(N)=O)NC(=O)[C@@H](CCCNC(=N)N)NC(=O)C(C)(C)C(=O)NCCc1c[nH]cn1)C(=O)NC(C)(C)C(=O)N[C@@H](Cc1c[nH]cn1)C(=O)N[C@@H](CC1CCNCC1)C(=O)NCC(=O)N1[C@H](C(=O)N[C@@H](Cc2ccc(Br)cc2)C(=O)N2CCC[C@H]2C(=O)N[C@H](Cc2ccc(-c3ccccc3)cc2)C(=O)O)C[C@@H]2CCCC[C@@H]21 [Example 11] ({Malonyl(2,2-Me2,histaminyl)}-[dR]Q[hArg][Ser(ΨH,HPro)][dR]L[Aib]H[Ala(piperidin-4-yl)]G[Oic][Phe(4-Br)]P[dBip]-OH) the EC50 (human Apelin receptor [1]) was > 10000 nM, the Emax (human Apelin receptor [2]) was 90.6% and the EC50 (human Apelin receptor [2]) was 12.6 nM.
For CC(C)C[C@H](NC(=O)[C@@H](CCCNC(=N)N)NC(=O)[C@@H]1CCCCN1C(=O)[C@H](CCCCNC(=N)N)NC(=O)[C@H](CCC(N)=O)NC(=O)[C@@H](CCCNC(=N)N)NC(=O)C(C)(C)C(=O)NCCc1c[nH]cn1)C(=O)NC(C)(C)C(=O)N[C@@H](Cc1c[nH]cn1)C(=O)N[C@@H](CC1CCNCC1)C(=O)NCC(=O)N1[C@H](C(=O)N[C@@H](Cc2ccc(Br)cc2)C(=O)N2CCC[C@H]2C(=O)N[C@H](Cc2ccc(-c3ccccc3)cc2)C(=O)O)C[C@@H]2CCCC[C@@H]21 [Example 12] ({Malonyl(2,2-Me2,histaminyl)}-[dR]Q[hArg][Pip][dR]L[Aib]H[Ala(piperidin-4-yl)]G[Oic][Phe(4-Br)]P[dBip]-OH), the EC50 (human Apelin receptor [1]) was > 10000 nM, the Emax (human Apelin receptor [2]) was 98.9% and the EC50 (human Apelin receptor [2]) was 7.94 nM.
With CC(C)(C)C[C@H](NC(=O)[C@@H](CCCNC(=N)N)NC(=O)[C@@H]1CCCN1C(=O)[C@H](CCCCNC(=N)N)NC(=O)[C@H](CCC(N)=O)NC(=O)[C@@H](CCCNC(=N)N)NC(=O)C(C)(C)C(=O)NCCc1c[nH]cn1)C(=O)NC(C)(C)C(=O)N[C@@H](Cc1c[nH]cn1)C(=O)N[C@@H](CC1CCNCC1)C(=O)NCC(=O)N1[C@H](C(=O)N[C@@H](Cc2ccc(Br)cc2)C(=O)N2CCC[C@H]2C(=O)N[C@H](Cc2ccc(-c3ccccc3)cc2)C(=O)O)C[C@@H]2CCCC[C@@H]21 [Example 13] ({Malonyl(2,2-Me2,histaminyl)}-[dR]Q[hArg]P[dR][tBuAla][Aib]H[Ala(piperidin-4-yl)]G[Oic][Phe(4-Br)]P[dBip]-OH) the EC50 (human Apelin receptor [1]) was > 10000 nM, the Emax (human Apelin receptor [2]) was 72.9% and the EC50 (human Apelin receptor [2]) was 25.1 nM.
For CC(C)(NC(=O)[C@H](CC1CCC1)NC(=O)[C@@H](CCCNC(=N)N)NC(=O)[C@@H]1CCCN1C(=O)[C@H](CCCCNC(=N)N)NC(=O)[C@H](CCC(N)=O)NC(=O)[C@@H](CCCNC(=N)N)NC(=O)C(C)(C)C(=O)NCCc1c[nH]cn1)C(=O)N[C@@H](Cc1c[nH]cn1)C(=O)N[C@@H](CC1CCNCC1)C(=O)NCC(=O)N1[C@H](C(=O)N[C@@H](Cc2ccc(Br)cc2)C(=O)N2CCC[C@H]2C(=O)N[C@H](Cc2ccc(-c3ccccc3)cc2)C(=O)O)C[C@@H]2CCCC[C@@H]21 [Example 14] ({Malonyl(2,2-Me2,histaminyl)}-[dR]Q[hArg]P[dR][Cba][Aib]H[Ala(piperidin-4-yl)]G[Oic][Phe(4-Br)]P[dBip]-OH), the EC50 (human Apelin receptor [1]) was > 10000 nM, the Emax (human Apelin receptor [2]) was 77% and the EC50 (human Apelin receptor [2]) was 7.94 nM.
CC(C)C[C@H](NC(=O)[C@@H](CCCNC(=N)N)NC(=O)[C@@H]1CCCN1C(=O)[C@H](CCCCNC(=N)N)NC(=O)[C@H](CCC(N)=O)NC(=O)[C@@H](CCCNC(=N)N)NC(=O)C(C)(C)C(=O)NCCc1c[nH]cn1)C(=O)NC(C)(C)C(=O)N[C@@H](Cc1cccnc1)C(=O)N[C@@H](CC1CCNCC1)C(=O)NCC(=O)N1[C@H](C(=O)N[C@@H](Cc2ccc(Br)cc2)C(=O)N2CCC[C@H]2C(=O)N[C@H](Cc2ccc(-c3ccccc3)cc2)C(=O)O)C[C@@H]2CCCC[C@@H]21 [Example 15] ({Malonyl(2,2-Me2,histaminyl)}-[dR]Q[hArg]P[dR]L[Aib][3Pal][Ala(piperidin-4-yl)]G[Oic][Phe(4-Br)]P[dBip]-OH) was tested, and the EC50 (human Apelin receptor [1]) was > 10000 nM, the Emax (human Apelin receptor [2]) was 86.4% and the EC50 (human Apelin receptor [2]) was 7.94 nM.
CC(C)C[C@H](NC(=O)[C@@H](CCCNC(=N)N)NC(=O)[C@@H]1CCCN1C(=O)[C@H](CCCCNC(=N)N)NC(=O)[C@H](CCC(N)=O)NC(=O)[C@@H](CCCNC(=N)N)NC(=O)C(C)(C)C(=O)NCCc1c[nH]cn1)C(=O)NC(C)(C)C(=O)N[C@@H](Cc1c[nH]cn1)C(=O)N[C@@H](CC1CCNCC1)C(=O)N[C@@H](C)C(=O)N1[C@H](C(=O)N[C@@H](Cc2ccc(Br)cc2)C(=O)N2CCC[C@H]2C(=O)N[C@H](Cc2ccc(-c3ccccc3)cc2)C(=O)O)C[C@@H]2CCCC[C@@H]21 [Example 16] ({Malonyl(2,2-Me2,histaminyl)}-[dR]Q[hArg]P[dR]L[Aib]H[Ala(piperidin-4-yl)]A[Oic][Phe(4-Br)]P[dBip]-OH) was tested, and the EC50 (human Apelin receptor [1]) was > 1000 nM, the Emax (human Apelin receptor [2]) was 64.8% and the EC50 (human Apelin receptor [2]) was 5.01 nM.
CC(C)C[C@H](NC(=O)[C@@H](CCCNC(=N)N)NC(=O)[C@@H]1CCCN1C(=O)[C@H](CCCCNC(=N)N)NC(=O)[C@H](CCC(N)=O)NC(=O)[C@@H](CCCNC(=N)N)NC(=O)C(C)(C)C(=O)NCCc1c[nH]cn1)C(=O)NC(C)(C)C(=O)N[C@@H](Cc1c[nH]cn1)C(=O)N[C@@H](CC1CCNCC1)C(=O)NCC(=O)N1[C@H](C(=O)N[C@@H](Cc2ccc(Cl)cc2)C(=O)N2CCC[C@H]2C(=O)N[C@H](Cc2ccc(-c3ccccc3)cc2)C(=O)O)C[C@@H]2CCCC[C@@H]21 [Example 17] ({Malonyl(2,2-Me2,histaminyl)}-[dR]Q[hArg]P[dR]L[Aib]H[Ala(piperidin-4-yl)]G[Oic][Phe(4-Cl)]P[dBip]-OH) was tested, and the EC50 (human Apelin receptor [1]) was > 10000 nM, the Emax (human Apelin receptor [2]) was 78.8% and the EC50 (human Apelin receptor [2]) was 25.1 nM.
CC(C)C[C@H](NC(=O)[C@@H](CCCNC(=N)N)NC(=O)[C@@H]1CCCN1C(=O)[C@H](CCCCNC(=N)N)NC(=O)[C@H](CCC(N)=O)NC(=O)[C@@H](CCCNC(=N)N)NC(=O)C(C)(C)C(=O)NCCc1c[nH]cn1)C(=O)NC(C)(C)C(=O)N[C@@H](Cc1c[nH]cn1)C(=O)N[C@@H](CC1CCNCC1)C(=O)NCC(=O)N1[C@H](C(=O)N[C@@H](Cc2cccc(Cl)c2)C(=O)N2CCC[C@H]2C(=O)N[C@H](Cc2ccc(-c3ccccc3)cc2)C(=O)O)C[C@@H]2CCCC[C@@H]21 [Example 18] ({Malonyl(2,2-Me2,histaminyl)}-[dR]Q[hArg]P[dR]L[Aib]H[Ala(piperidin-4-yl)]G[Oic][Phe(3-Cl)]P[dBip]-OH) was tested, and the EC50 (human Apelin receptor [1]) was > 10000 nM, the Emax (human Apelin receptor [2]) was 47.5% and the EC50 (human Apelin receptor [2]) was 79.4 nM.
CC(C)C[C@H](NC(=O)[C@@H](CCCNC(=N)N)NC(=O)[C@@H]1CCCN1C(=O)[C@H](CCCCNC(=N)N)NC(=O)[C@H](CCC(N)=O)NC(=O)[C@@H](CCCNC(=N)N)NC(=O)C(C)(C)C(=O)NCCc1c[nH]cn1)C(=O)NC(C)(C)C(=O)N[C@@H](Cc1c[nH]cn1)C(=O)N[C@@H](CC1CCNCC1)C(=O)NCC(=O)N1[C@H](C(=O)N[C@@H](Cc2ccc(-c3ccccc3)cc2)C(=O)N2CCC[C@H]2C(=O)N[C@H](Cc2ccc(-c3ccccc3)cc2)C(=O)O)C[C@@H]2CCCC[C@@H]21 [Example 19] ({Malonyl(2,2-Me2,histaminyl)}-[dR]Q[hArg]P[dR]L[Aib]H[Ala(piperidin-4-yl)]G[Oic][Bip]P[dBip]-OH) was tested, and the EC50 (human Apelin receptor [1]) was > 10000 nM, the Emax (human Apelin receptor [2]) was 97% and the EC50 (human Apelin receptor [2]) was 20 nM.
For CC(C)C[C@H](NC(=O)[C@@H](CCCNC(=N)N)NC(=O)[C@@H]1CCCN1C(=O)[C@H](CCCCNC(=N)N)NC(=O)[C@H](CCC(N)=O)NC(=O)[C@@H](CCCNC(=N)N)NC(=O)C(C)(C)C(=O)NCCc1c[nH]cn1)C(=O)NC(C)(C)C(=O)N[C@@H](Cc1c[nH]cn1)C(=O)N[C@@H](CC1CCNCC1)C(=O)NCC(=O)N1[C@H](C(=O)N[C@@H](Cc2ccc3ccccc3c2)C(=O)N2CCC[C@H]2C(=O)N[C@H](Cc2ccc(-c3ccccc3)cc2)C(=O)O)C[C@@H]2CCCC[C@@H]21 [Example 20] ({Malonyl(2,2-Me2,histaminyl)}-[dR]Q[hArg]P[dR]L[Aib]H[Ala(piperidin-4-yl)]G[Oic][2Nal]P[dBip]-OH), the EC50 (human Apelin receptor [1]) was > 10000 nM, the Emax (human Apelin receptor [2]) was 84.1% and the EC50 (human Apelin receptor [2]) was 12.6 nM.
In the case of CC(C)C[C@H](NC(=O)[C@@H](CCCNC(=N)N)NC(=O)[C@@H]1CCCN1C(=O)[C@H](CCCCNC(=N)N)NC(=O)[C@H](CCC(N)=O)NC(=O)[C@@H](CCCNC(=N)N)NC(=O)C(C)(C)C(=O)NCCc1c[nH]cn1)C(=O)NC(C)(C)C(=O)N[C@@H](Cc1c[nH]cn1)C(=O)N[C@@H](CC1CCNCC1)C(=O)NCC(=O)N1[C@H](C(=O)N[C@@H](Cc2ccc(Br)cc2)C(=O)N2CCCC[C@H]2C(=O)N[C@H](Cc2ccc(-c3ccccc3)cc2)C(=O)O)C[C@@H]2CCCC[C@@H]21 [Example 21] ({Malonyl(2,2-Me2,histaminyl)}-[dR]Q[hArg]P[dR]L[Aib]H[Ala(piperidin-4-yl)]G[Oic][Phe(4-Br)][Pip][dBip]-OH), the EC50 (human Apelin receptor [1]) is reported as > 1000 nM, the Emax (human Apelin receptor [2]) is reported as 54.5% and the EC50 (human Apelin receptor [2]) is reported as 10 nM.
